Measurements taken from publication PMC10794952, “Benzothiazole DNA gyrase inhibitors and their conjugates with siderophore mimics: design, synthesis and evaluation” (RSC Advances, 2024).
In brackets after ≈: the same amount, converted by molar mass. Read-outs that look alike come from different tables or passages of the source.

Legend:
E. coli topoisomerase IV [1] = target: T1, E. coli topoisomerase IV (Escherichia coli, UniProt P20083); parameters: method as in PMID 33017402, PMID 33524686, PMID 36634346, PMID 36877255; details: parent inhibitors; cited from earlier work
A. baumannii ATCC 19606 = test: Broth microdilution MIC, A. baumannii ATCC 19606; format: cell-based; details: Acinetobacter baumannii, ATCC19606, A. baumannii ATCC 19606, read-out: Minimum inhibitory concentrations
From the text: (§1) Cefiderocol, a siderophore cephalosporin, was used as a positive control. Compound 18a was only tested on E. coli in both media conditions. Iron-depleted conditions were used to determine the effects of the attached siderophore mimics on antibacterial activities, since bacteria under low iron conditions produce and secrete siderophores to take up iron from the extracellular environment.[32] […] We have previously observed that our benzothiazole GyrB/ParE inhibitors are strongly effluxed from the G− bacterial cells and that this effect is especially pronounced in E. coli.[14] Therefore, compounds 10, 12, and 18b were also tested against E. coli JW5503, which is a tolC deletion mutant strain with a defective efflux pump.
(§2) The single-gene knock-out mutant strain of E. coli JW5503 (tolC knock-out) was obtained from the E. coli collection of the National BioResource Project at the National Institute of Genetics (Japan).[45] To determine the antibacterial activities, broth microdilution assays were carried out in 96-well plates following the Clinical and Laboratory Standards Institute guidelines.[46] Compounds were prepared as 100% DMSO stock solutions. The final concentration of DMSO was 1% and had no effect on the growth of bacteria. Preliminary screening was performed at 50 μM, and growth inhibition was measured after 24 h incubation at 37 °C. For compounds displaying >90% growth inhibition in the preliminary assay, MIC values were determined in dose–response assays (from at least two independent experiments, each with three replicates per concentration). Cation-adjusted Mueller-Hinton broth (CAMHB, BD) was used in all assays. CAMHB was prepared according to manufacturer's instructions and iron-depleted CAMHB (ID-CAMHB) according to CLSI guidelines. ID-CAMHB was used in order to mimic the conditions faced by bacteria during human infections, and induces the ferric iron transport. ID-CAMHB was prepared by adding 100 g of Chelex 100 resin (Bio-Rad) to 1 L of autoclaved CAMHB and stirred for 2 h at room temperature, in order to remove cations from the medium. Then, broth was filtered using a 0.2 μm filter to remove the resin and pH adjusted to 7.3 using 5 M hydrochloric acid. ID-CAMHB was then supplemented with calcium (CaCl2), magnesium (MgCl2) and zinc (ZnSO4) to final concentrations of 22.5 μg mL^−1, 11.25 μg mL^−1 and 0.56 μg mL^−1, respectively, and filtered again. To evaluate the effect of iron concentration on antibacterial effect of compounds, an appropriate amount of iron(III) chloride was added to ID-CAMHB, and this supplemented media was used as control CAMHB. The iron concentration in CAMHB and ID-CAMHB were approximately 0.2 mg L^−1 and ≤0.03 mg L^−1, respectively. Cefiderocol, a positive control, MICs were determined against E. coli, P. aeruginosa and A. baumannii, and used as positive control in the assays. Cefiderocol was purchased from MedChemExpress Europe.

P. aeruginosa ATCC 27853 = test: Broth microdilution MIC, P. aeruginosa ATCC 27853; format: cell-based; details: Pseudomonas aeruginosa, ATCC27853, P. aeruginosa ATCC 27853, read-out: Minimum inhibitory concentrations
From the text: as §1, §2

E. coli JW5503 = test: Broth microdilution MIC, efflux-defective E. coli JW5503 (tolC deletion mutant); format: cell-based, Escherichia coli; details: for MIC: Escherichia coli; for improvement of antibacterial activity in iron-depleted medium: iron-depleted vs iron-supplemented medium, E. coli JW5503
From the text: as §1, §2

E. coli ATCC 25922 = test: Broth microdilution MIC, E. coli ATCC 25922; format: cell-based, Escherichia coli
From the text: as §1, §2

[2] = tested on: wild type G− E. coli, P. aeruginosa and A. baumannii; test: Antibacterial activity against wild type G− bacteria (screen at 50 μM); format: cell-based
From the text: as §1
as §2, with “The iron concentration in CAMHB and ID-CAMHB were approximately 0.2 mg L^−1 and ≤0.03 mg L^−1, respectively.” left out, “Cefiderocol was purchased from MedChemExpress Europe.” left out

E. coli topoisomerase IV [3] = target: T1, E. coli topoisomerase IV; test: E. coli topoisomerase IV relaxation assay; format: biochemical; details: average of three independent measurements
From the text: (§3) All final compounds were first tested for their inhibitory activity in the E. coli DNA gyrase supercoiling assay and the E. coli topoisomerase IV relaxation assay (Table 1). […] These observations were confirmed with compounds 18a and 18b, which carried the siderophore mimic at position 4. […] With compounds 18a and 18b, we confirmed our hypothesis that it is possible to maintain potent enzyme inhibition after introduction of the siderophore mimic into the structure of the GyrB/ParE inhibitor.
(§4) The assays for determination of IC50 against E. coli DNA gyrase and topoisomerase IV were performed according to previously reported procedures.[23] IC50 values were determined with seven concentrations of the inhibitors. […] IC50 values were determined in three independent measurements, and their average value is given as a final result.

E. coli DNA gyrase = E. coli DNA gyrase (Escherichia coli, UniProt P0AES6); test: E. coli DNA gyrase supercoiling assay; format: biochemical; details: for IC50: supercoiling assay, average of three independent measurements
From the text: as §3, §4

[4] = JW5503, read-out: Minimum inhibitory concentrations, E. coli JW5503, +Fe: CAMHB + Fe
[5] = JW5503, read-out: Minimum inhibitory concentrations, E. coli JW5503, −Fe: ID-CAMHB
[6] = E. coli ATCC 25922, +Fe: CAMHB + Fe, read-out: Minimum inhibitory concentrations
[7] = Escherichia coli, ATCC25922, read-out: Minimum inhibitory concentrations

T1 sequence (P0AFI2 whole entry): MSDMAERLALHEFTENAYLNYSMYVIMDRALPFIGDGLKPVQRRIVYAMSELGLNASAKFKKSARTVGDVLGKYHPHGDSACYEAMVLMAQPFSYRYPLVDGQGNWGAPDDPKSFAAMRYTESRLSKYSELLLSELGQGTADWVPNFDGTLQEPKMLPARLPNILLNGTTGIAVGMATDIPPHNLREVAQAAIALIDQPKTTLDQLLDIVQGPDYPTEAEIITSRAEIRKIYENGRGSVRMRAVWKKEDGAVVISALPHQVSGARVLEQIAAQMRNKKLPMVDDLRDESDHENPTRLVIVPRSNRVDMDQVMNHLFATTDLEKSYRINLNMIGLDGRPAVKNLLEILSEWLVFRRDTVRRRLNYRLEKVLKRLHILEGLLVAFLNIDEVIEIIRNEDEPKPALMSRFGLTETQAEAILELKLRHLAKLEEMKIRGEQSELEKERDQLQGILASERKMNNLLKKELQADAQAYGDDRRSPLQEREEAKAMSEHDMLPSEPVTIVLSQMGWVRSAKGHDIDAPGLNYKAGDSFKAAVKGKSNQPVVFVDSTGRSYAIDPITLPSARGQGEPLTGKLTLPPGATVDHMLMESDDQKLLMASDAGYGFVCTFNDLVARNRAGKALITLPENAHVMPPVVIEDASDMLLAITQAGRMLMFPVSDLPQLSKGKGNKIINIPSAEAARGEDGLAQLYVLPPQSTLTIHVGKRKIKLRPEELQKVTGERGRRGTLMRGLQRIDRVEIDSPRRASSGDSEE
T1 sequence (P20083 whole entry): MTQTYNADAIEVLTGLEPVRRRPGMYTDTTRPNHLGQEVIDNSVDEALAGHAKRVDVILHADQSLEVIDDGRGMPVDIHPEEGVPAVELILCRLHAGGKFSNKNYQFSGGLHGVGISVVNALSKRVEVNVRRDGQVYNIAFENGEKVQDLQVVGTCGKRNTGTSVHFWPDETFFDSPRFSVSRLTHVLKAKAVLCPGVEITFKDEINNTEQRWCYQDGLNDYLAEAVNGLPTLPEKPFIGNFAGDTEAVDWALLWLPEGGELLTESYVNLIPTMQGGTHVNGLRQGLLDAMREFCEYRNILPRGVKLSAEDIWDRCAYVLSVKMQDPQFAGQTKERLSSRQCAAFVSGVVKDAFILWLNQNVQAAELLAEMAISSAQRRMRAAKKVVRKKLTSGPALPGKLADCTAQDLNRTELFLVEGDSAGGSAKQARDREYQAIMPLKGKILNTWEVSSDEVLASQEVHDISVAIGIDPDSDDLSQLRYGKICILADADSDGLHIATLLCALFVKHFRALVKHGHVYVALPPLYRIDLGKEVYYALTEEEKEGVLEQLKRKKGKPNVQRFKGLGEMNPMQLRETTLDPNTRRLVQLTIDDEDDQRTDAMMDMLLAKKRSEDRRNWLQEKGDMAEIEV

SMILES	IC50 (E. coli topoisomerase IV [1]) [nM]	MIC (A. baumannii ATCC 19606; +Fe: CAMHB + Fe) [µM]	MIC (A. baumannii ATCC 19606; −Fe: ID-CAMHB) [µM]	MIC (P. aeruginosa ATCC 27853; +Fe: CAMHB + Fe) [µM]	MIC (P. aeruginosa ATCC 27853; −Fe: ID-CAMHB) [µM]	MIC (E. coli JW5503; [4]) [µM]	MIC (E. coli JW5503; [5]) [µM]	improvement of antibacterial activity in iron-depleted medium (E. coli JW5503)	MIC (E. coli ATCC 25922; [6]) [µM]	MIC (E. coli ATCC 25922; [7]) [µM]	MIC [2] [µM]	IC50 (E. coli topoisomerase IV [3]) [nM]	IC50 E. coli DNA gyrase (range in words) (E. coli DNA gyrase)	IC50 (E. coli DNA gyrase) [nM]	melting point [°C]	MIC ([2]; iron-supplemented and iron-depleted media, indicated by weak activity at 50 μM, read-out: MIC) [µM]	MIC (E. coli ATCC 25922; Escherichia coli, ATCC25922, E. coli ATCC 25922, −Fe: iron depleted CAMHB (ID-CAMHB), read-out: Minimum inhibitory concentrations) [µM]	MIC (E. coli JW5503; JW5503, E. coli JW5503, iron-depleted conditions) [µg/mL]	MIC (E. coli JW5503; JW5503, E. coli JW5503, iron-supplemented conditions) [µg/mL]
Cc1[nH]c(C(=O)Nc2nc3ccc(C(=O)O)cc3s2)c(Cl)c1Cl [A]	500 ± 280																		
CC(C)(O/N=C(\C(=O)N[C@@H]1C(=O)N2C(C(=O)[O-])=C(C[N+]3(CCNC(=O)c4ccc(O)c(O)c4Cl)CCCC3)CS[C@H]12)c1csc(N)n1)C(=O)O [Cefiderocol, reference compound]		2	0.25 (≈ 0.188 µg/mL)	1	0.25 (≈ 0.188 µg/mL)	0.125	0.0625	twofold	0.25	0.25 (≈ 0.188 µg/mL)									
O=C(NCc1cc(=O)c(O)co1)c1ccc2nc(NC(=O)c3cc(Br)c(Br)[nH]3)sc2c1 [Compound 10, 2-(4,5-Dibromo-1H-pyrrole-2-carboxamido)-N-((5-hydroxy-4-oxo-4H-pyran-2-yl)methyl)benzo[d]thiazole-6-carboxamide]		> 50	> 50	> 50	> 50	> 50	> 50		>50	> 50	> 50	> 10000	low micromolar range	1420 ± 180	> 300				
O=C(NCc1cc(=O)c(O)c[nH]1)c1ccc2nc(NC(=O)c3cc(Br)c(Br)[nH]3)sc2c1 [Compound 12, 2-(4,5-Dibromo-1H-pyrrole-2-carboxamido)-N-((5-hydroxy-4-oxo-1,4-dihydropyridin-2-yl)methyl)benzo[d]thiazole-6-carboxamide]		> 50	> 50	> 50	> 50	> 50	> 50		>50	> 50	> 50	> 10000	low micromolar range	1700 ± 360	> 300				
O=C(O)c1cc(OCc2cc(=O)c(O)c[nH]2)c2nc(NC(=O)c3cc(Br)c(Br)[nH]3)sc2c1 [Compound 18a, 2-(4,5-Dibromo-1H-pyrrole-2-carboxamido)-4-((5-hydroxy-4-oxo-1,4-dihydropyridin-2-yl)methoxy)benzo[d]thiazole-6-carboxylic acid]									>50			1280 ± 820	low nanomolar range	12 ± 5		> 50	> 50		
Cc1[nH]c(C(=O)Nc2nc3c(OCc4cc(=O)c(O)c[nH]4)cc(C(=O)O)cc3s2)c(Cl)c1Cl [Compound 18b, 2-(3,4-Dichloro-5-methyl-1H-pyrrole-2-carboxamido)-4-((5-hydroxy-4-oxo-1,4-dihydropyridin-2-yl)methoxy)benzo[d]thiazole-6-carboxylic acid]		> 50	> 50	> 50	> 50	25	12.5	twofold	>50	> 50	> 50	430 ± 20	low nanomolar range	22 ± 6	> 300			6.37	12.7
